Entries after “also recorded” stand apart in the source; their conditions may differ.
Test system: Human umbilical vein endothelial cells
Assay: Millicell migration assay of HUVECs towards a cyclic RGD peptide coated membrane
Format: cell-based
Settings: 2 hours, uncoated membranes
Procedure: FIG. 7 (Example 5): Bar graph showing the results of migration assays utilizing specialized Millicell culture plates for in vitro testing. HUVECs were seeded onto the inside surface of Millicell membranes and semi-quantified following migration through a microporous membrane at the outside surface after two hours of incubation.
Millicell culture plate inserts from Millipore were coated with cyclic RGD peptide at the outside surface of the microporous membrane only to stimulate haplotactic cell migration. Human umbilical vein endothelial cells (HUVCEs) were loaded into millicell chambers in completed medium in the presence or absence of paclitaxel or sirolimus, and subsequently incubated for 2 hours at 37 C.°.

`CC(=O)O[C@H]1C(=O)[C@@]2(C)[C@H]([C@H](OC(=O)c3ccccc3)[C@]3(O)C[C@H](OC(=O)[C@H](O)[C@@H](NC(=O)c4ccccc4)c4ccccc4)C(C)=C1C3(C)C)[C@]1(OC(C)=O)CO[C@@H]1C[C@@H]2O` [paclitaxel] was tested, and the “Cell migration in the presence of the antiproliferative drug” value was “marked decrease; also recorded: almost completely abolished”.

— patent US20090053280A1, “COATING STENTS WITH CYCLIC RGD PEPTIDES OR MIMETICS” (priority 2007, published 2009)
